Columns and labels:
Format in all cases: in vivo
[1] = test system: Green peach aphid (Myzus persicae); assay: Green peach aphid spray test on bell pepper plants; conditions: 120 h, aphid mortality determined after 5 days, read-out: mortality in comparison with untreated controls
Experimental: (§1) The active compounds were formulated in cyclohexanone as a 10,000 ppm solution supplied in 1.3 ml ABgene® tubes. These tubes were inserted into an automated electrostatic sprayer equipped with an atomizing nozzle and they served as stock solutions for which lower dilutions were made in 1:1 (vol:vol) water:aceton. A nonionic surfactant (Kinetic®) was included in the solution at a volume of 0.01% (v/v).
Bell pepper plants at the first true-leaf stage were infested prior to treatment by placing heavily infested leaves from the main colony on top of the treatment plants. Aphids were allowed to transfer overnight to accomplish an infestation of 30-50 aphids per plant and the host leaves were removed. The infested plants were then sprayed by an automated electrostatic plant sprayer equipped with an atomizing spray nozzle. The plants were dried in the sprayer fume hood, removed, and then maintained in a growth room under fluorescent lighting in a 24 hour photoperiod at 25° C. and 20-40% relative humidity. Aphid mortality on the treated plants, relative to mortality on untreated control plants, was determined after 5 days.

[2] = test system: Silverleaf whitefly (Bemisia argentifolii, adult); assay: Silverleaf whitefly test on sprayed cotton plants; conditions: 72 h, mortality assessed 3 days after treatment, read-out: mortality in comparison with untreated controls
Experimental: as §1
Cotton plants at the cotyledon stage (one plant per pot) were sprayed by an automated electrostatic plant sprayer equipped with an atomizing spray nozzle. The plants were dried in the sprayer fume hood and then removed from the sprayer. Each pot was placed into a plastic cup and 10 to 12 whitefly adults (approximately 3-5 days […]) were introduced. The insects were collected using an aspirator and 0.6 cm, nontoxic Tygon® tubing (R-3603) connected to a barrier pipette tip. The tip, containing the collected insects, was then gently inserted into the soil containing the treated plant, allowing insects to crawl out of the tip to reach the foliage for feeding. Cups were covered with a reusable screened lid (150-micron mesh polyester screen PeCap from Tetko, Inc.). […] Mortality was assessed 3 days after treatment, compared to untreated control plants.

[3] = test system: Vetch aphid (Megoura viciae); assay: Vetch aphid bean leaf disk microtiter plate test; conditions: foliar, 144 h, 6 days, assessed on the basis of vital, reproduced aphids, read-out: mortality in comparison with untreated controls
Experimental: The active compounds were formulated in 3:1 (vol:vol) water:DMSO with different concentrations of formulated compounds.
Bean leaf disks were placed into microtiterplates filled with 0.8% agar-agar and 2.5 ppm OPUS™. The leaf disks were sprayed with 2.5 μl of the test solution and 5 to 8 adult aphids were placed into the microtiter plates which were then closed and kept at 23±1° C. and 50±5% relative humidity under fluorescent light for 6 days. Mortality was assessed on the basis of vital, reproduced aphids. Aphid mortality and fecundity was then visually assessed.

[4] = test system: Cotton aphid (Aphis gossypii, mixed life stages); assay: Cotton aphid spray test on cotton plants; conditions: 120 h, aphid mortality determined after 5 days, read-out: mortality in comparison with untreated controls
Experimental: as §1
Cotton plants at the cotyledon stage were infested with aphids prior to treatment by placing a heavily infested leaf from the main aphid colony on top of each cotyledon. Aphids were allowed to transfer overnight to accomplish an infestation of 80-100 aphids per plant and the host leaf was removed. The infested plants were then sprayed by an automated electrostatic plant sprayer equipped with an atomizing spray nozzle. The plants were dried in the sprayer fume hood, removed from the sprayer, and then maintained in a growth room under fluorescent lighting in a 24-hr photoperiod at 25° C. and 20-40% relative humidity. Aphid mortality on the treated plants, relative to mortality on untreated control plants, was determined after 5 days.

[5] = test system: Cowpea aphid (Aphis craccivora); assay: Cowpea aphid spray test on potted cowpea plants; conditions: population reduction assessed after 24, 72 and 120 hours, read-out: mortality in comparison with untreated controls
Experimental: If not otherwise specified the test solutions were prepared as follows:
The active compound was dissolved at the desired concentration in a mixture of 1:1 (vol:vol) distilled water:aceton. The test solution was prepared at the day of use and in general at concentrations of ppm (wt/vol).
Potted cowpea plants colonized with 100-150 aphids of various stages were sprayed after the pest population had been recorded. Population reduction was assessed after 24, 72, and 120 hours.

CCC(C)=NOCC(C)n1ncc(C(=O)N(CC)c2ccnnc2)c1C (single isomer, unassigned) [I-9, N-ethyl-5-methyl-1-[1-methyl-2-[1-methyl-propylideneamino]oxy-ethyl]-N-pyridazin-4-yl-pyrazole-4-carboxamide]
≥ 75%: mortality at 300 ppm [1] | mortality at 300 ppm [2] | mortality at 2500 ppm [3] | mortality at 300 ppm [4] | mortality at 500 ppm [5]
